Test results published in PubChem BioAssay (NCI).
“And” between values parts separate entries of the source, which are not always exact repeats. Equal entries are not always repeated.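 Step 1: Grow cells in 96-well plates. Step 2: Expose to compound for 48 hours at 5 concentrations. Step 3: Interpolate endpoints linearly; if unreached, use highest concentration. Abbreviation: GI50, concentration required for 50% inhibition of growth. The concentration for full growth arrest is given as TGI.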 Where a SMILES comes first, the peptide text is derived from it. [ ]: non-standard residue; d: D form. The star is where a group is joined. ξ: configuration not given here. X6 = FC(F)(F)c1cc(NC(=S)*)cc(C(F)(F)F)c1; ξF = NC(Cc1ccccc1)C(=O)O

Legend:
Experiment in all cases: inhibition of tumour cell growth, NCI panel, 48 h
[1] = test system: MCF7 breast
[2] = test system: HS 578T breast
[3] = test system: OVCAR-8 ovarian
[4] = test system: MDA-MB-435
[5] = test system: M14 melanoma
[6] = test system: A498 renal

Row | Compound | GI50 [1] | TGI [1] | GI50 [2] | TGI [2] | GI50 [3] | TGI [3] | GI50 [4] | TGI [4] | GI50 [5] | TGI [5] | GI50 [6] | TGI [6]
1 | Cn1c2ccccc2c2c(Nc3ccccc3)c3ccccc3nc21 | 5.29 µM | 25.4 µM | 18.2 µM | 60 µM | 27.3 µM | > 100 µM | 2.7 µM | 6.85 µM | 15.9 µM | 33.3 µM |  | 
2 | CO[C@H](C(=O)[C@@H](O)[C@@H](C)O)[C@@H]1Cc2cc3cc(O[C@H]4C[C@@H](O[C@H]5C[C@@H](O)[C@H](O)C(C)O5)[C@H](O)C(C)O4)c(C)c(O)c3c(O)c2C(=O)[C@H]1O[C@H]1C[C@@H](O[C@H]2C[C@@H](O[C@H]3C[C@](C)(O)C(=O)C(C)O3)[C@@H](O)C(C)O2)[C@H](O)C(C)O1 (some centres not stated) | 0.0208 µM | > 33.2 µM | 0.0723 µM | 8.25 µM | 0.0991 µM | > 33.2 µM | 0.0646 µM | 0.252 µM | 0.12 µM | 0.817 µM | 0.0185 µM | 0.147 µM
3 | CC[C@@]1(O)C[C@H](OC2CC(N(C)C)C(O)C(C)O2)c2c(O)c3c(c(O)c2[C@H]1OC1CC(N(C)C)C(O)C(C)O1)C(=O)c1cccc(O)c1C3=O (some centres not stated) | < 0.01 µM | 0.381 µM and 0.0743 µM | < 0.01 µM | 0.388 µM and 0.0724 µM | < 0.01 µM | 0.4 µM and 1.1 µM | < 0.01 µM | 0.123 µM and 0.0187 µM | < 0.01 µM |  | < 0.01 µM | 
4 | C=C(CN1CCN(c2ccc(Cl)cc2F)CC1)c1ccc(C(=O)Nc2ccccc2N)cc1 | 3.08 µM | > 100 µM | 3.38 µM | > 70.6 µM | 3.4 µM | > 100 µM |  |  | 2.03 µM |  | 3.03 µM | > 80.4 µM
5 | Nc1ccccc1SC(C[N+](=O)[O-])c1ccc2c(c1)OCO2 (configuration not stated) |  | 12.4 µM |  | 36.8 µM |  | 11 µM |  | 9.35 µM |  | 3.15 µM |  | 20.6 µM
6 | NC(=O)c1sc(-n2cnc3ccccc32)cc1OCc1ccccc1Br | 0.86 µM | > 25 µM | 9.11 µM | > 25 µM | 4.83 µM | 23.5 µM | 0.795 µM | 5.47 µM | 5.71 µM | > 25 µM | 4.11 µM | 14.4 µM
7 | Clc1ccc2c(NCCCCNc3nc(N4CCCCC4)nc4ccccc34)ccnc2c1 | 2.52 µM | 10.8 µM | 1.82 µM | 4.6 µM | 2.82 µM | 10.4 µM | 1.67 µM | 3.2 µM | 1.62 µM | 3.14 µM | 1.78 µM | 4.62 µM
8 | O=C1/C(=C/c2cccc([N+](=O)[O-])c2)COc2ccc(O)cc21 |  |  | 3 µM | 9.4 µM | 2.67 µM | 9.52 µM | 1.91 µM | 4.05 µM | 1.72 µM | 3.54 µM | 3.35 µM | 13.4 µM
9 | CCCCCN(CCCCC)CC(O)c1cc(C)c2ccc3cc(C(C)C)ccc3c2c1 (configuration not stated) | 1.75 µM | 3.48 µM | 1.93 µM | 4.65 µM | 2.55 µM | 6.46 µM | 1.72 µM | 3.21 µM | 1.77 µM | 3.7 µM | 1.56 µM | 2.94 µM
10 | c1ccc2cc(-c3cc(-c4cc(-c5ccc6ccccc6c5)on4)no3)ccc2c1 |  | > 100 µM |  | > 100 µM |  | > 100 µM |  | > 100 µM |  | > 100 µM |  | > 100 µM
11 | NC(=O)c1cccc2cn(-c3ccc([C@@H]4CCCNC4)cc3)nc12 | 6.59 µM | 23.9 µM | 21.5 µM | 76.7 µM | 12.4 µM | 38.5 µM | 12.7 µM | 26.5 µM | 10.7 µM | 26.3 µM | 19.2 µM | 40.8 µM
12 | COC(=O)[C@@H](NC(=O)CNC(=O)[C@H]1CCCN1C(=O)C(Cc1ccccc1)NC(=S)Nc1cc(C(F)(F)F)cc(C(F)(F)F)c1)C(C)C (some centres not stated) (X6-[ξF][dP]GV-OMe) | 2.86 µM | 11.3 µM | 2.47 µM | 8.49 µM | 3.75 µM | 53.6 µM | 2.79 µM | 8.12 µM | 3.33 µM | 10.5 µM | 2.11 µM | 7.92 µM
13 | COc1ccc(C(=O)Cn2c(C(=O)c3ccccc3)nc(-c3ccc(OC)cc3)c2-c2ccc(OC)cc2)cc1 | > 100 µM | > 100 µM | 45.6 µM | > 100 µM | > 100 µM | > 100 µM | > 100 µM | > 100 µM | > 100 µM | > 100 µM | > 100 µM | > 100 µM
14 | COC1CCC(N2C(=O)CNc3ncc(-c4ccc(C(C)(C)O)nc4)nc32)CC1 (configuration not stated) | 0.305 µM and 0.127 µM | > 10 µM and 12.6 µM | 0.407 µM and 0.137 µM | 3.68 µM and 0.624 µM | 1.27 µM and 0.436 µM | > 35.2 µM | 0.668 µM and 0.167 µM | 3.28 µM | 0.614 µM and 0.134 µM | > 6.95 µM and 11.8 µM | 0.0614 µM and 0.0422 µM | 0.769 µM and 0.378 µM
15 | O=C(Nc1ccc(Cl)c(Cl)c1)Nc1ccc(Cl)c(Cl)c1 | 2.61 µM and 2.78 µM | 12 µM and 11.6 µM | 3.29 µM and 2.08 µM | 19.3 µM and 6.88 µM | 3.12 µM and 2.54 µM | 14.1 µM and 9.83 µM | 3.06 µM and 2.8 µM | 11.4 µM and 8.8 µM | 3.1 µM | 9.59 µM |  | 2.79 µM and 5.18 µM
16 | Cc1ccc(NC2=C(Cl)C(=O)N(Cc3ccccc3)C2=O)cc1O | 32.2 µM | > 100 µM | 25.9 µM | 83.4 µM | 26.1 µM | > 100 µM | 29 µM | > 100 µM | 51.4 µM | > 100 µM | 7.18 µM | 33.1 µM
17 | CC1=C(C(=O)Nc2ccc(Cl)c(Cl)c2)C(c2cccc(Oc3ccccc3)c2)NC(=S)N1 (configuration not stated) |  |  | 5.03 µM | 13.5 µM | 7.8 µM | 16.8 µM | 7.55 µM | 14.2 µM | 9.21 µM | 20.1 µM |  | 
18 | OCc1ccc(N2CCC2c2ccc(F)cc2)cc1Cl (configuration not stated) | 0.69 µM | 24.5 µM | 26.7 µM | > 86.8 µM | 23.6 µM | > 100 µM | 26.6 µM | > 75.7 µM | 32.7 µM | > 79.4 µM | 0.0584 µM | 0.244 µM
19 | O=C(/C=C/C12c3ccccc3C(c3ccccc31)C1C(=O)NC(=O)C12)c1ccncc1 (configuration not stated) | 2.25 µM | 12.6 µM | 3.04 µM | 19.8 µM | 2.41 µM | 8.2 µM | 2.9 µM | 8.36 µM | 2.44 µM | 7.65 µM | 14.1 µM | 28.3 µM
